Assay results published in patent US7592345B2, “Piperazine and [1,4]diazepan derivatives as NK antagonists” (Hoffmann-La Roche Inc., priority 2007, dated 2009).

What was measured:
[1] = target: T1, recombinant human NK3 receptor (Homo sapiens, UniProt P29371); assay: [3H]SR142801 competition binding assay; conditions: [3H]SR142801, membranes from HEK293 cells transiently expressing recombinant human NK3 receptor; read-out: hNK3 Ki
T1 construct: expressed in transfected cells; host or cells: HEK293 cells (transient expression), membranes
T1 sequence (P29371 1-465): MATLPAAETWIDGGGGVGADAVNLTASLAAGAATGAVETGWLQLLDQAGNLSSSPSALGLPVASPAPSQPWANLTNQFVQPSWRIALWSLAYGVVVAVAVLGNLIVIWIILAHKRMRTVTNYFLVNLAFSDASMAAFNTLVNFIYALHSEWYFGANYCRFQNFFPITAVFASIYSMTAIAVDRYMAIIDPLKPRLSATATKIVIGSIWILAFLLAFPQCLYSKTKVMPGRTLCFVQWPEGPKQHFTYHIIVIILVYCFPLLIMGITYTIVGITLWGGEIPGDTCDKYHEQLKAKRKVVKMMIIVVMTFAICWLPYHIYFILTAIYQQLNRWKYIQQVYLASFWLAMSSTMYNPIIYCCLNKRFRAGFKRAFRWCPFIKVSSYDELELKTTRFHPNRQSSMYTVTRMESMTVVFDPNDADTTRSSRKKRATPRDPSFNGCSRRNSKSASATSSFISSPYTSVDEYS
Procedure, shortened: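 Membranes from HEK293 cells transiently expressing human NK3 were incubated 75 min at RT with [3H]SR142801 at its KD and inhibitor (0.0003-10 μM) in Tris-HCl pH 7.4/MnCl2/phosphoramidon/BSA. Nonspecific binding used 10 μM SB222200. Ki from Hill-fitted IC50 via Cheng-Prusoff, duplicate determinations.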

[2] = phase II trial; cited from earlier work

Row | Ki [1] [nM] | Compound | activity in the treatment of negative symptoms [2] | activity on positive symptoms of schizophrenia [2]
1 | 43.4 | CC(NC(=O)C(C)(CCN1CCCN(S(C)(=O)=O)CC1)c1ccc(Cl)c(Cl)c1)c1ccc(Cl)c(Cl)c1 (stereo not shown) [Example 122, 2-(3,4-Dichloro-phenyl)-N-[1-(3,4-dichloro-phenyl)-ethyl]-4-(4-methanesulfonyl-[1,4]diazepan-1-yl)-2-methyl-butyramide] |  | 
2 | 93.4 | CN(Cc1ccc(-c2ccncc2)cc1)C(=O)C(C)(CCN1CCCN(S(C)(=O)=O)CC1)c1ccc(Cl)c(Cl)c1 (stereo not shown) [Example 123, 2-(3,4-Dichloro-phenyl)-4-(4-methanesulfonyl-[1,4]diazepan-1-yl)-2,N-dimethyl-N-(4-pyridin-4-yl-benzyl)-butyramide] |  | 
3 | 107 | CC(CCN1CCCN(S(C)(=O)=O)CC1)(C(=O)NCc1ccc(C#N)cc1)c1ccc(Cl)c(Cl)c1 (stereo not shown) [Example 124, N-(4-Cyano-benzyl)-2-(3,4-dichloro-phenyl)-4-(4-methanesulfonyl-[1,4]diazepan-1-yl)-2-methyl-butyramide] |  | 
4 | 275 | CN(Cc1ccc(C(F)(F)F)nc1)C(=O)C(C)(CCN1CCCN(S(C)(=O)=O)CC1)c1ccc(Cl)c(Cl)c1 (stereo not shown) [Example 125, 2-(3,4-Dichloro-phenyl)-4-(4-methanesulfonyl-[1,4]diazepan-1-yl)-2,N-dimethyl-N-(6-trifluoromethyl-pyridin-3-ylmethyl)-butyramide] |  | 
5 | 949 | CC(CCN1CCCN(S(C)(=O)=O)CC1)(C(=O)NCc1ccc(C(F)(F)F)nc1)c1ccc(Cl)c(Cl)c1 (stereo not shown) [Example 126, 2-(3,4-Dichloro-phenyl)-4-(4-methanesulfonyl-[1,4]diazepan-1-yl)-2-methyl-N-(6-trifluoromethyl-pyridin-3-ylmethyl)-butyramide] |  | 
6 | 78.4 | CN(Cc1cccc(C(F)(F)F)c1)C(=O)C(C)(CCN1CCN(S(C)(=O)=O)CC1)c1ccc(Cl)c(Cl)c1 (stereo not shown) [Example 127, 2-(3,4-Dichloro-phenyl)-4-(4-methanesulfonyl-piperazin-1-yl)-2,N-dimethyl-N-(3-trifluoromethyl-benzyl)-butyramide] |  | 
7 | 39.9 | CC(CCN1CCN(S(C)(=O)=O)CC1)(C(=O)N[C@@H](CO)c1ccc(Cl)cc1)c1ccc(Cl)c(Cl)c1 (stereo partly drawn) [Example 130, N-[(R)-1-(4-Chloro-phenyl)-2-hydroxy-ethyl]-2-(3,4-dichloro-phenyl)-4-(4-methanesulfonyl-piperazin-1-yl)-2-methyl-butyramide] |  | 
8 | 186 | CC(CCN1CCN(S(C)(=O)=O)CC1)(C(=O)N[C@H](CO)c1ccc(Cl)cc1)c1ccc(Cl)c(Cl)c1 (stereo partly drawn) [Example 131, N-[(S)-1-(4-Chloro-phenyl)-2-hydroxy-ethyl]-2-(3,4-dichloro-phenyl)-4-(4-methanesulfonyl-piperazin-1-yl)-2-methyl-butyramide] |  | 
9 | 146 | CC(CCN1CCN(S(C)(=O)=O)CC1)(C(=O)N[C@@H](CO)c1ccc(F)cc1)c1ccc(Cl)c(Cl)c1 (stereo partly drawn) [Example 132, 2-(3,4-Dichloro-phenyl)-N-[(R)-1-(4-fluoro-phenyl)-2-hydroxy-ethyl]-4-(4-methanesulfonyl-piperazin-1-yl)-2-methyl-butyramide] |  | 
10 | 397 | CC(CCN1CCN(S(C)(=O)=O)CC1)(C(=O)N[C@H](CO)c1ccc(F)cc1)c1ccc(Cl)c(Cl)c1 (stereo partly drawn) [Example 133, 2-(3,4-Dichloro-phenyl)-N-[(S)-1-(4-fluoro-phenyl)-2-hydroxy-ethyl]-4-(4-methanesulfonyl-piperazin-1-yl)-2-methyl-butyramide] |  | 
11 | 229 | CC(NC(=O)C(C)(CCN1CCN(S(C)(=O)=O)CC1)c1ccc(Cl)c(Cl)c1)c1ccc(F)cc1 (stereo not shown) [Example 134, 2-(3,4-Dichloro-phenyl)-N-[1-(4-fluoro-phenyl)-ethyl]-4-(4-methanesulfonyl-piperazin-1-yl)-2-methyl-butyramide] |  | 
12 | 196 | CC(CCN1CCN(S(C)(=O)=O)CC1)(C(=O)NC(c1ccc(F)cc1)C(F)(F)F)c1ccc(Cl)c(Cl)c1 (stereo not shown) [Example 135, 2-(3,4-Dichloro-phenyl)-4-(4-methanesulfonyl-piperazin-1-yl)-2-methyl-N-[2,2,2-trifluoro-1-(4-fluoro-phenyl)-ethyl]-butyramide] |  | 
13 | 15.4 | CC(CCN1CCN2C(CCS2(=O)=O)C1)(C(=O)N[C@@H](CO)c1ccc(Cl)cc1)c1ccc(Cl)c(Cl)c1 (stereo partly drawn) [Example 136, N-[(R)-1-(4-Chloro-phenyl)-2-hydroxy-ethyl]-2-(3,4-dichloro-phenyl)-4-(1,1-dioxo-hexahydro-1λ^6-thia-5,7a-diaza-inden-5-yl)-2-methyl-butyramide] |  | 
14 | 30.5 | CC(CCN1CCN2C(CCS2(=O)=O)C1)(C(=O)N[C@@H](CO)c1ccc(F)cc1)c1ccc(Cl)c(Cl)c1 (stereo partly drawn) [Example 137, 2-(3,4-Dichloro-phenyl)-4-(1,1-dioxo-hexahydro-1λ^6-thia-5,7a-diaza-inden-5-yl)-N-[(R)-1-(4-fluoro-phenyl)-2-hydroxy-ethyl]-2-methyl-butyramide] |  | 
15 |  | CC(=O)N(C)C1(c2ccccc2)CCN(CCC[C@]2(c3ccc(Cl)c(Cl)c3)CCCN(C(=O)c3ccccc3)C2)CC1 [SR 142,801, Osanetant] | inactive | active
